Test results reported in PMC10147685, “Safety, tolerability, and pharmacokinetics of Aurora kinase B inhibitor AZD2811: a phase 1 dose-finding study in patients with advanced solid tumours” (British Journal of Cancer, 2023).
Read-outs that look alike come from different tables or passages of the source.

Tests used:
[1] = Pharmacokinetics: AZD2811 whole blood concentrations and urine excretion; format: in vivo, human; details: for Cmax / AUC(0-t) / Tmax: human, whole blood; for Cmax: read-out: Geometric mean Cmax (CV%); for AUC(0-t): compartmental PK analysis, read-out: Geometric mean AUC(0–504h) (CV%); for Tmax: read-out: Median tmax (range)
Description: (§1) AEs were assessed throughout the treatment and follow-up periods. Patients were followed until all treatment-related toxicity resolved, or for at least 30 days post-study drug discontinuation. AEs were graded according to CTCAE v4.03. Venous blood samples (4 mL) for measurement of AZD2811 concentrations were collected at Cycle 1 Days 1–6, 8, 15, 16, and 22 and Cycle 2 Day 1 in Cohorts 1–6; Cycle 1 Days 1, 4, 8, 12, and 22 in Cohort 7; Cycle 1 Days 1, 4, 8, 12, and 15 and Cycle 2 Day 1 in Cohorts 8–12. Tumour imaging assessments using computed tomography or magnetic resonance imaging of the chest and abdomen/pelvis were performed at screening (≤28 days prior to initiation of treatment), and then every 2 cycles.
(§2) The safety analysis set comprised all patients who received at least one dose of AZD2811. The PK analysis set comprised all patients who received at least one dose of AZD2811 with at least one reportable concentration. […] There was no formal statistical analysis of safety and efficacy data. The numbers of patients experiencing each AE were summarised by Medical Dictionary for Regulatory Activities (MedDRA) version 22.1 system organ class, MedDRA preferred term, and CTCAE grade. The ORR and best overall response based on RECIST 1.1 were summarised. AZD2811 blood concentrations and derived PK parameters were summarised by dose regimen. Summary statistics were calculated for area under the curve (AUC), time of maximum concentration (tmax), and maximum concentration after a single dose (Cmax).
Compartmental PK analysis was used to derive AUC from time zero to the time of the last planned sampling time in the study (AUC0–504h). Cmax and tmax were derived using the standard non-compartmental approach. PK parameters of Cmax, tmax, and AUC0–504h are summarised by cohort in Supplementary Table 2, and geometric mean AZD2811 whole blood concentrations are presented by cohort in Fig. 3. Maximum AZD2811 whole blood concentrations were observed after the end of infusions (Days 1 and 4). […] There was evidence of a second and third phase, 96 and 264 h post-dose. […] Urine samples were only collected in the first four cohorts, and AZD2811 concentrations were below the limit of quantification in the majority (>80%). Consequently, only the total amount of unchanged AZD2811 excreted into urine over 0–72 h was calculated; the maximum amount excreted was 294.40 µg for a patient in Cohort 4 (51 mg AZD2811), which represented <1% of the dose.
Fig. 3 Geometric mean (±geoSD) AZD2811 whole blood concentrations. a For days 1 and 4 regimens and b for day 1 only regimens. In Cohorts 1–6, PK blood samples (4 mL per sample) for determination of AZD2811 blood concentrations were collected from all patients on Cycle 1 Day 1 pre-dose, and at 1, 2, 4, 6, 8, 24, and 48 h (±15 min for each time point) from the start of infusion, then on Cycle 1 Day 4 pre-dose, and at 1, 2, 4, 6, 8, and 24 h (day 5), 48 h (day 6), 96 h (day 8) from the start of infusion, and in the morning on days 15, 16, and 22. A Cycle 2 Day 1 pre-dose sample and a 2-h sample (end of infusion) were also obtained. In Cohorts 7–12, PK blood samples were collected from all patients on Cycle 1 Day 1 pre-dose, and at 1, 2, 4, 6, and 8 h from the start of infusion, and in the morning on Days 4, 8, 12, and 22. G-CSF granulocyte colony stimulating factor, PK pharmacokinetics, Q3W every 3 weeks, Q4W every 4 weeks.

[2] = test system: animal models of SCLC and diffuse large B-cell lymphoma (DLBCL); set-up: method as in PMID 26865565, PMID 30872381; details: at half the dose intensity of barasertib; cited from earlier work
advanced solid tumours = test: Preliminary antitumour activity (RECIST v1.1 best overall response); format: in vivo, human
Description: as §1
The primary objective was to evaluate the safety profile and determine the MTD/RP2D and schedule of AZD2811 by assessing the incidence of DLTs, AEs, and abnormal laboratory test results. Secondary objectives were evaluation of PK parameters and preliminary assessment of antitumour activity, including objective response rate (ORR [complete response + partial response (CR + PR)]) based on RECIST v1.1, and incidence of best overall response, stable disease (SD) and progressive disease (PD).
as §2

LS- or ES-SCLC = details: cited from earlier work
[3] = intravenous, 15 mg, Cohort 1: 15 mg, Days 1 and 4, 28-day cycles, no G-CSF, N = 3
[4] = intravenous, 25 mg, Cohort 2: 25 mg, Days 1 and 4, 28-day cycles, no G-CSF, N = 3
[5] = intravenous, 38 mg, Cohort 3: 38 mg, Days 1 and 4, 28-day cycles, no G-CSF, N = 3
[6] = intravenous, 51 mg, Cohort 4: 51 mg, Days 1 and 4, 28-day cycles, no G-CSF, N = 3
[7] = intravenous, 100 mg, Cohort 5: 100 mg, Days 1 and 4, 28-day cycles, no G-CSF, N = 3
[8] = intravenous, 200 mg, Cohort 8: 200 mg, Day 1, 21-day cycles, optional G-CSF, N = 3
[9] = intravenous, 200 mg, Cohort 6: 200 mg, Days 1 and 4, 28-day cycles, no G-CSF, N = 9
[10] = intravenous, 200 mg, Cohort 7: 200 mg, Day 1, 28-day cycles, optional G-CSF, N = 4
[11] = intravenous, 400 mg, Cohort 9: 400 mg, Day 1, 21-day cycles, optional G-CSF, N = 7
[12] = intravenous, 500 mg, Cohort 12: 500 mg, Day 1, 21-day cycles, mandatory G-CSF, N = 6
[13] = intravenous, 600 mg, Cohort 11: 600 mg, Day 1, 21-day cycles, mandatory G-CSF, N = 3
[14] = over 0–72 h, a patient in Cohort 4 (51 mg AZD2811)

Compound: CCN(CCO)CCCOc1ccc2c(Nc3cc(CC(=O)Nc4cccc(F)c4)n[nH]3)ncnc2c1 [AZD2811, AZD1152 hydroxyquinazoline pyrazole anilide]
- Dose proportionality of PK ([1]; across the dose range evaluated (15–600 mg)): broadly dose-proportional
- Urine samples with AZD2811 concentrations below the limit of quantification ([1]; first four cohorts): > 80%
- Duration of AZD2811 blood exposure ([1]; following a 2-h infusion on Day 1): sustained for several days
- End of gradual monophasic decline in concentration post-infusion ([1]; following a 2-h infusion on Day 1, second and third phase 96 and 264 h post-dose): approximately 96 h
- Cmax ([1]; in vivo, Cohort 8: 200 mg, Day 1, 21-day cycles, optional G-CSF, N = 3): 41400 ng/mL
- AUC(0-t) [1, 3]: 362 µg·h/mL
- Cmax [1, 3]: 3900 ng/mL
- Tmax [1, 3]: 77 h
- AUC(0-t) [1, 4]: 658 µg·h/mL
- Cmax [1, 4]: 6700 ng/mL
- Tmax [1, 4]: 75 h
- AUC(0-t) [1, 5]: 917 µg·h/mL
- Cmax [1, 5]: 8900 ng/mL
- Tmax [1, 5]: 75 h
- AUC(0-t) [1, 6]: 1420 µg·h/mL
- Cmax [1, 6]: 14500 ng/mL
- Tmax [1, 6]: 78 h
- AUC(0-t) [1, 7]: 3670 µg·h/mL
- Cmax [1, 7]: 36800 ng/mL
- Tmax [1, 7]: 78 h
- AUC(0-t) ([1]; intravenous, 200 mg, Cohort 6: 200 mg, Days 1 and 4, 28-day cycles, no G-CSF, N = 8): 6220 µg·h/mL
- AUC(0-t) ([1]; intravenous, 200 mg, Cohort 7: 200 mg, Day 1, 28-day cycles, optional G-CSF, N = 3): 3020 µg·h/mL
- AUC(0-t) [1, 8]: 2750 µg·h/mL
- Cmax [1, 9]: 58300 ng/mL
- Tmax [1, 9]: 74 h
- Cmax [1, 10]: 43400 ng/mL
- Tmax [1, 10]: 2 h
- Tmax [1, 8]: 4 h
- AUC(0-t) [1, 11]: 5440 µg·h/mL
- Cmax [1, 11]: 87300 ng/mL
- Tmax [1, 11]: 3 h
- AUC(0-t) ([1]; intravenous, 500 mg, Cohort 12: 500 mg, Day 1, 21-day cycles, mandatory G-CSF, N = 5): 7840 µg·h/mL
- Cmax [1, 12]: 93900 ng/mL
- Tmax [1, 12]: 6 h
- AUC(0-t) [1, 13]: 11600 µg·h/mL
- Cmax [1, 13]: 138000 ng/mL
- Tmax [1, 13]: 6 h
- Maximum amount excreted into urine as part of the dose [1, 14]: < 1 % of the dose
- Maximum amount of unchanged AZD2811 excreted into urine [1, 14]: 294.40 µg
- Efficacy and toxicity compared with barasertib [2]: greater efficacy and less toxicity
- Duration of SD (advanced solid tumours; 1 patient with cancer of pancreaticobiliary origin in Cohort 8): 66 weeks
- Treatment discontinuation due to progressive disease (advanced solid tumours; Cohorts 1–6): 83.3%
- Treatment discontinuation due to progressive disease (advanced solid tumours; Cohorts 7–12): 81.5%
- Best overall response: Not evaluable (advanced solid tumours; Total (N = 51)): 5 (9.8) n (%)
- Best overall response: Not evaluable, Incomplete post-baseline assessments (advanced solid tumours; Total (N = 51)): 4 (7.8) n (%)
- Best overall response: Not evaluable, Stable disease <2 cycles (advanced solid tumours; Total (N = 51)): 1 (2.0) n (%)
- Best overall response: Progressive disease (advanced solid tumours; Total (N = 51)): 22 (43.1) n (%)
- Best overall response: Progressive disease, Death (advanced solid tumours; Total (N = 51)): 3 (5.9) n (%)
- Best overall response: Progressive disease, RECIST progression (advanced solid tumours; Total (N = 51)): 19 (37.3) n (%)
- Best overall response: Stable disease ≥2 cycles (advanced solid tumours; Total (N = 51), two cycles = 56 days in 28-day cycles, 42 days in 21-day cycles): 23 (45.1) n (%)
- Complete responses (CRs) (advanced solid tumours; all cohorts): no CRs
- Best overall response: partial response, patients (advanced solid tumours; all cohorts, n = 1 of 51): 2.0%
- Best overall response: Partial response (advanced solid tumours; evaluable-for-efficacy analysis set, Total (N = 51), all cohorts): 1 (2.0) n (%)
- Longest duration of therapy (advanced solid tumours; patient with adenocarcinoma of the breast in Cohort 7, best overall response SD): > 17 months
- Reduction from baseline in sum of target lesion diameters (advanced solid tumours; patient with prostate cancer in Cohort 6 with a PR): 80%
- Patients with SD (LS- or ES-SCLC; 200 mg AZD2811 on Days 1 and 4 every 28 days, 5/15 patients): 33.3%
- Objective responses (LS- or ES-SCLC; 200 mg AZD2811 on Days 1 and 4 every 28 days, 15 patients): no objective responses
- Septic shock due to pneumonia with grade 4 neutropenia, patients (LS- or ES-SCLC; without prophylactic G-CSF, 1 of 15 patients): 6.7%
- Febrile neutropenia, patients (LS- or ES-SCLC; without prophylactic G-CSF, 6 of 15 patients): 40.0%
- Target-related grade ≥3 neutropenia, patients (LS- or ES-SCLC; without prophylactic G-CSF, 9/15 patients): 60.0%
